Measurements reported in patent US11382921B2, “Use of compounds in preparation of a medicament for treatment of hemorrhagic stroke” (priority 2017, dated 2022).

Experiments:
[1] = tested on: C57B mouse model of cerebral hemorrhage; test: Determination of intracerebral hemorrhage (hemorrhage area, brain hemoglobin content) in collagenase-induced intracerebral hemorrhage model; format: in vivo; settings: C57B mice
Procedure: (§1) 112 clean grade health C57 male mice (8˜10 week, 20-22 g) were purchased from Beijing Vital River Laboratory Animal Technology Co. Ltd. Feeding conditions: 22° C.˜26° C., humidity 50%˜60%. The mice were grouped, fed with standard feed and purified water, and subjected to adaptive feeding for 1 week.
Establishment of Intracerebral hemorrhage model: After weighing body weight of mice, anesthesia was induced by 5% enflurane, and maintained by 2% enflurane mixed with 70% N2O and 30% O2. Mice were fixed on a stereotactic apparatus in the prone position and disinfected topically. The skin of the animals was incised to expose the skull for drilling. 0.3 μl of 0.35UVII collagenase was slowly injected with a micro sampler. The needle was kept for 5 min then slowly pulled out for 5 min, and the skull drilling was covered by bone glue. Animals were sutured, and subjected to routine disinfection. In the sham operation group, the needle was inserted in the same way, but without injection. The solvent or Triol was administered by intraperitoneal injection at 60 mg/kg 1 h after modeling. […]
chloral hydrated peritoneal was injected intraperitoneally for anesthesia at 24 hours after modeling. […] The hemoglobin content in the brain was measured with a hemoglobin detection kit.

[2] = tested on: C57B mouse model of cerebral hemorrhage; test: Neurobehavioral scoring (circle test, adhesive paper test, modified Garcia score) in collagenase-induced intracerebral hemorrhage model; format: in vivo; settings: C57B mice, 60 mg/kg i.p. 1 h after modeling
Procedure: FIG. 2. […] A. Circle test; Adhesive paper test; B. Time duration for contacting adhesive paper; C. Time consumption to tear off adhesive paper; *p<0.05, ***p<0.001, n=12˜23 animals/group. con: normal; sham: sham-operated group; ICH: cerebral hemorrhage model; vehicle: solvent.
FIG. 3. […] Modified Garcia score (A-D) is used to evaluate somatosensory and motor function at 24 hours after cerebral hemorrhage in C57B mice: A. Nose hair contact test; B. Limb symmetry test; C. Forelimb walking test, D. Overall nerve function Score; n=12˜23 animals/group, *p<0.05, **p<0.01, ***p<0.001. con: normal; sham: sham-operated group; ICH: cerebral hemorrhage model; vehicle: solvent.
as §1
Establishment of Intracerebral hemorrhage model: After weighing body weight of mice, anesthesia was induced by 5% enflurane, and maintained by 2% enflurane mixed with 70% N2O and 30% O2. Mice were fixed on a stereotactic apparatus in the prone position and disinfected topically. The skin of the animals was incised to expose the skull for drilling. 0.3 μl of 0.35UVII collagenase was slowly injected with a micro sampler. The needle was kept for 5 min then slowly pulled out for 5 min, and the skull drilling was covered by bone glue. Animals were sutured, and subjected to routine disinfection. In the sham operation group, the needle was inserted in the same way, but without injection. The solvent or Triol was administered by intraperitoneal injection at 60 mg/kg 1 h after modeling.
C57 mice were divided into 5 groups using random number method, namely normal control group (n=12), sham operation group (n=12), cerebral hemorrhage group (n=26), cerebral hemorrhage+solvent intraperitoneal injection 1 h after modeling group (n=26), and cerebral hemorrhage+Triol intraperitoneal injection 1 h after modeling group (n=26).
The neurological function was measured 24 hours after the cerebral hemorrhage model was established.

Structure (SMILES): C[C@@]12CCCC1C1C[C@@H](O)[C@@]3(O)C[C@@H](O)CC[C@]3(C)C1CC2 (stereo partly drawn) [Triol, 5α-androst-3β,5,6β-triol]
- hemoglobin content of the hemorrhagic hemisphere (amount of hemorrhage) ([1]; 60 mg/kg i.p. 1 h after modeling, 24 h, vs cerebral hemorrhage model group, p<0.01 (FIG. 1B)): decreased significantly
- hemorrhage area (volume) of the hemisphere brain with collagenase injection ([1]; Triol 60 mg/kg intraperitoneal 1 h after modeling, 24 h later (FIG. 1A)): significantly reduced
- adhesive paper test: time consumption to remove adhesive paper ([2]; 24 h, p<0.001 (FIG. 2C)): significantly reduced
- modified Garcia score: beard touch avoidance (nose hair contact test) ([2]; 24 h, p<0.001 (FIG. 3A)): significantly restored
- neurological function scores (overall, modified Garcia) ([2]; 24 h, p<0.001 (FIG. 3D)): significantly improved
- modified Garcia score: symmetry of the limbs' movement ([2]; 24 h, p<0.01 (FIG. 3B)): significantly improved
- adhesive paper test: time duration for contacting adhesive paper ([2]; 24 h, p<0.05 (FIG. 2B)): significantly reduced
- modified Garcia score: forelimb walking ([2]; 24 h, p<0.05 (FIG. 3C)): significantly improved
- circle test: time taken to go out of the center of the circle to any point of the circle edge ([2]; 24 h after cerebral hemorrhage (FIG. 2A)): has a tendency to decrease
